According to patent US20250313555A1, “2-SUBSTITUTED THIAZOLE AND BENZOTHIAZOLE COMPOSITIONS AND METHODS AS DUX4 INHIBITORS” (ALTAY THERAPEUTICS, INC., priority 2022, published 2025):

Key:
Format in all cases: cell-based
DUX4 = target: T1, DUX4 (Homo sapiens, UniProt Q9UBX2); assay: DUX4 EC50 luciferase reporter protocol in transfected HEK293 cells; settings: 6 hr
T1 construct: expressed in transfected cells; host or cells: HEK293
Source text: EC50 Protocol This example provides a representative protocol for a single well of a 96-well plate. It can be scaled up as necessary for treatment of multiple wells. For negative controls, a well containing reporter DNA, Renilla DNA, and turbofect (without expression vector) were used. For positive controls, wells containing cells that were not treated with any inhibitor were used. They were transfected with the complete DNA lipid complex as set forth below. The DNA-lipid complex for one well of the 96-well plate is prepared by adding to a tube 100 ng of the transfection factor (TF) expression vector, 100 ng of TF reporter DNA, 10 ng of Renilla reporter DNA, […] Turbofect transfection reagent, and […] of the medium without any serum or penicillin/streptomycin. The combination was mixed by gentle flicking of the tube, and the mixture was pipetted into a well of a 96-well plate. The plate was then gently tapped to spread the combination evenly on the bottom of the well. The well was incubated for 30 min. HEK293 cells were grown until 80% confluent in DMEM supplemented with 10% fetal bovine serum, 1% penicillin streptomycin, and 1% amphotericin B. The adherent cells growing on a 10 cm plate were trypsinized with 1 mL of prewarmed trypsin. Once the cells detached from the plate, 10 mL of medium was added, and the cells were strained through a […] cell strainer. The cells were counted using a mixture of 10 mL cell suspension with 10 mL of trypan blue. Once the total number of cells are counted, a dilution of 150 k/mL was prepared. After incubation of the transfection complex was complete, […] of HEK293s (23.25 k total cells) were gently dispensed on top of the wells containing the 25 mL transfection complex, producing a total volume of about 180 mL. The mixture was then incubated for 24 h. To treat cells with each inhibitor, the inhibitors were prepared in the same growth medium. In a deep well block, the regular medium with serum was added to well 1 (135 mL) and to wells 2 through 10 (100 mL). To the first well was added 15 mL of 10 nM inhibitor. The final concentration of the drug in well 1 was 1 nM. The wells were pipeted up and down, and 50 mL was transferred from well 1 to well 2 (1/3 dilution). The well was mixed, and the seriation dilution was repeated with the remaining wells. Once the serial dilution was complete, using a multichannel pipet, 20 mL of each inhibitor were transferred to designated wells in a 96-well plate. […] Before the assay, a sufficient amount of 1× passive lysis buffer was prepared. The luciferase substrate buffer (Promega) was thawed completely and then mixed with the lyophilized luciferase substrate. The stop buffer (Promega) was also completely thawed. (1) Cell lysis: After treatment of the cells was complete, all the cell media is removed by flipping the 96-well plate over and tapping it dry on a dry paper towel. Immediately afterwards, the 1× passive lysis buffer (25 μL) was added. The plates were then placed on a rocker for 15 minutes at medium speed. (2)Measuring luciferase signal: The luciferase substrate solution for all wells was placed in a solution basin. The luciferase substrate solution was then added to every well (100 μL/well) using a multichannel pipette. The total luminescence was then read immediately using a plate reader. (3)Measuring Renilla signal: The “complete stop solution” was prepared in a solution basin by mixing the buffer with the 50× stop solution substrate (Promega) to make the final 1× solution. The complete stop solution was added to each well (50 μL/well) using a multichannel pipette. The total luminescence was then read immediately using a plate reader. Using a spreadsheet (e.g., Excel), the luciferase signal was divided by the renilla signal to get a relative luciferase unit.

[1] = Cell cytotoxicity 50 assay (CC50), MB200 cells, cell titer glo; settings: human
In short: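 MB200 cells were seeded at 10 k/well in F10 medium with bFGF, 15% FBS and dexamethasone. Cells were exposed to serially diluted compound (from 10 mM stock) in triplicate for 72 h at 37 °C. Viability was read by CellTiter-Glo luminescence and CC50 was fitted.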

[2] = Cell cytotoxicity 50 assay (CC50), HEK cells; settings: human
In short: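 Starting from a 10 mM drug solution, serial dilutions were made in medium and added onto HEK cells, which were then incubated 72 h at 37 °C. Viability was read as CellTiter-Glo luminescence after 5 min, and CC50 was obtained by curve fitting.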

T1 sequence (Q9UBX2 whole entry): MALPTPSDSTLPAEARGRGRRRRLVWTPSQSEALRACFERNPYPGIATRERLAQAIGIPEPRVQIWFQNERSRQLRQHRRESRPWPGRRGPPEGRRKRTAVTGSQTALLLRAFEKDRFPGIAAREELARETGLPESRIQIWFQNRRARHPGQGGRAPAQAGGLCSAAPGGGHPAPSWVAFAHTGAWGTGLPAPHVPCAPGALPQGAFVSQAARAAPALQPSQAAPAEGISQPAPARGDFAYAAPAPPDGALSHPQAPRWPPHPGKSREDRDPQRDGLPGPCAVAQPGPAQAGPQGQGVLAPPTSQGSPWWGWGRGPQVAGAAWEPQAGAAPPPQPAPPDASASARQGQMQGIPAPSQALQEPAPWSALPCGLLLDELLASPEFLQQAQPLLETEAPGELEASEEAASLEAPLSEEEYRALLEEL

| Compound | EC50 (DUX4) | CC50 at 72 h [1] | CC50 at 72 h [2] |
| --- | --- | --- | --- |
| CC(=O)NCCCNC(=O)C12CCC(c3nc4ccccc4s3)(CC1)CC2 [Compound 173] | > 10 µM | > 10 µM | > 10 µM |
| CN(C(=O)CCC1CCC(=O)N1)c1ccc(-c2nc3ccccc3s2)cc1 (stereo not drawn) [Compound 177] | > 10 µM | > 10 µM | > 10 µM |
| O=C(CCC1CCC(=O)N1)Nc1ccc(Cc2nc3ccccc3s2)cc1 (stereo not drawn) [Compound 178] | > 10 µM | > 10 µM | > 10 µM |

Now from value to molecule, other results behind:

| EC50 (DUX4) | Compound | CC50 at 72 h [1] | CC50 at 72 h [2] |
| --- | --- | --- | --- |
| > 10 µM | O=C(CCC1CCC(=O)N1)Nc1ccc(-c2nc3ccccc3s2)o1 (stereo not drawn) [Compound 179] | > 10 µM | > 10 µM |
| > 10 µM | CC(=O)N[C@@H]1CC[C@H](C(=O)Nc2nc3ccccc3s2)C1 [Compound 182] | > 10 µM | > 10 µM |
| > 10 µM | CC(=O)N[C@H]1CC[C@@H](C(=O)Nc2nc3ccccc3s2)C1 [Compound 183] | > 10 µM | > 10 µM |
| > 10 µM | CC(=O)N[C@@H]1CC[C@@H](C(=O)Nc2nc3ccccc3s2)C1 [Compound 185] | > 10 µM | > 10 µM |
| > 10 µM | CC(=O)NCCCNC(=O)c1cc(C#N)cc(-c2nc3cc(F)ccc3s2)c1 [Compound 188] | > 10 µM | > 10 µM |
